Test results taken from patent US8829195B2, “Compounds and compositions for inhibiting the activity of ABL1, ABL2 and BCR-ABL1” (Novartis AG, priority 2012, dated 2014).
pIC50: −log10 of the molar value.

Columns and labels:
[1] = Estimation of human PK parameters and efficacious dose from in vivo PK; conditions: estimated from in vivo PK
Description: In vivo PK parameters can be utilized for the estimation of human PK parameters. Applying various methods known in the art for prediction of human PK, the predicted human clearance can be estimated.

KCL-22 xenograft [2] = test: In vivo efficacy in KCL-22 xenograft model, single agent treatment; design: species or system mouse
Protocol: In Vivo Efficacy in KCL-22 Xenograft Model—Single Agent Treatment Compounds of the invention were dosed orally in a mouse KCL-22 xenograft model for 7 days. 6-8 week old female nude mice purchased from Harlan (Indianapolis Ind.) were implanted subcutaneously with 5×10^6 KCL-22 cells in 50% matrigel (BD Biosciences, #354234) in the right dorsal axillary region. […] Compounds of the invention in phosphate buffered saline were prepared weekly and dosed by oral gavage at 3-30 mg/kg twice daily (n=6 mice per dose level). Tumor volume was determined by twice weekly digital calipering and calculated as Length×Width^2/2.

KCL-22 xenograft [3] = test: In vivo efficacy in KCL-22 xenograft model, dual agent treatment; design: species or system mouse
Protocol: In Vivo Efficacy in KCL-22 Xenograft Model—Dual Agent Treatment 6-8 week old female nude mice purchased from Harlan (Indianapolis Ind.) were implanted subcutaneously with 2×10^6 KCL-22 cells in 50% matrigel (BD Biosciences, #354234) in the right dorsal axillary region. […] Compounds of the invention in a phosphate-buffered saline solution were prepared weekly and dosed by oral gavage at 30 mg/kg twice daily, and Nilotinib solution was dosed at 75 mg/kg twice daily. Animals received either single agent alone or combination of both simultaneously. Tumor volume was determined by twice weekly digital calipering and calculated as Length×Width^2/2.

Ba/F3-BCR-ABL1-WT cells = molecular target: T1, Ba/F3-BCR-ABL1-WT cells (Homo sapiens, UniProt P00519); test: Ba/F3-BCR-ABL1-WT cell proliferation assay; assay type: cell-based, murine; conditions: 48 hours; read-out: Ba/F3-BCR-ABL1-WT IC50
T1 construct: fused on or other part: P11274 (Breakpoint cluster region protein)
Protocol: To generate Ba/F3 cells that depend on BCR-ABL1 expression for growth and survival, Ba/F3 cells were engineered to express BCR-ABL1 using retroviral transduction with a MSCV based retroviral vector containing a p210 BCR-ABLlexpression cassette. […] These cells are referred to as Ba/F3-BCR-ABL-WT.
Ba/F3-WT cells were maintained in RPMI1640 media with L-glutamine, HEPES (Lonza), 10% FBS (Gibco) and 5 ng/ml IL-3 (Calbiochem). Ba/F3-BCR-ABL1-WT cells and Ba/F3-BCR-ABL1-T315I cells were manitained in RPMI1640 media with L-glutamine, HEPES (Lonza) and 10% FBS (Gibco).
For each cell line, the cell density was adjusted to 50 000 cells/mL and 50 μL (2500 cells) added per well of a 384-well assay plate.
Test compounds were resuspended in DMSO at a concentration of 10 mM. A serial three-fold dilution of each compound with DMSO was performed in 384-well plates using the Janus Liquid Dispenser (PerkinElmer). Compound was delivered to the assay plates containing 2500 cells in a 50 μL volume via Acoustic delivery from an ATS-100 (EDC).
Cells were incubated at 37° C. in a humidified environment with 5% carbon dioxide for 48 hours. Britelite plus solution (Perkin Elmer) was prepared according to the manufacturer's instructions and 25 μL added to each well of the assay plate. […] The degree of luminescence correlates with the number of cells in each well. The effect of each inhibitor concentration can therefore be calculated and IC50 values generated.

ABL1 (64-515) [4] = molecular target: T2, ABL1 (64-515) (Homo sapiens, UniProt P00519); test: Caliper ABL1 (64-515) microfluidic mobility shift assay; assay type: biochemical; conditions: Table of Biochemical Data
T2 construct: 3.5 nM ABL (ABL(64-515), produced in-house from E. coli); His6 followed by a PreScission protease cleavage site (N, cleaved yes); made in house; host or cells: E. coli (BL21 (DE3) according to b733)
Protocol: All assays were performed in 384-well microtiter plates. Each assay plate contained 8-point serial dilutions for 40 test compounds, as well as four 8-point serial dilutions of staurosporine as a reference compound, plus 16 high and 16 low controls. Liquid handling and incubation steps were done on a Thermo CatX workstation equipped with Innovadyne Nanodrop Express. Between pipetting steps, tips were cleaned in wash cycles using wash buffer.
The assay plates were prepared by addition of 50 mL per well of compound solution in 90% DMSO. […] Plates with terminated kinase reactions were transferred to the Caliper LC3000 workstations for reading. Phosphorylated and unphosphorylated peptides were separated using the Caliper microfluidic mobility shift technology. Briefly, samples from terminated kinase reactions were applied to the chip. Analytes are transported through the chip by constant buffer flow and the migration of the substrate peptide is monitored by the fluorescence signal of its label. Phosphorylated peptide (product) and unphosphorylated peptide (substrate) are separated in an electric field by their charge/mass ratio. Kinase activities were calculated from the amounts of formed phospho-peptide. IC50 values were determined from percent inhibition values at different compound concentrations by non-linear regression analysis.
Preparation of compound dilutions: Test compounds were dissolved in DMSO (10 mM) and transferred into 1.4 mL flat bottom or V-shaped Matrix tubes carrying a unique 2D matrix. The stock solutions were stored at +2° C. if not used immediately. For the test procedure the vials were defrosted and identified by a scanner whereby a working sheet was generated that guided the subsequent working steps.
Compound dilutions were made in 96-well plates. This format enabled the assay of maximally 40 individual test compounds at 8 concentrations (single points) including 4 reference compounds. The dilution protocol included the production of “pre-dilution plates”, “master plates” and “assay plates”.
Pre-dilution plates: Polypropylene 96-well plates were used as pre-dilution plates. […] All dilution steps were done on a HamiltonSTAR robot.
These plates were used directly for the assay which was performed in a total volume of 9.05 μL.

ABL1 (64-515) [5] = molecular target: T2, ABL1 (64-515); test: Radio ABL1 (64-515) radiometric filter-binding assay; assay type: biochemical
Protocol: Expression and purification of protein kinase—Expression and purification of human ABL was performed using standard expression purification procedures. […] The His-ABL was expressed in E. coli BL21 (DE3) and the ABL proteins were isolated by Ni-affinity on a Ni-NTA column (Qiagen). The His-tag was removed by PreScission protease (GE Healthcare) and the non-phosphoprylated ABL further purified on a Mono Q HR 10/10 (GE Healthcare, mono-phosphorylated ABL is about 10-20% of total ABL protein) and HiLoad 16/60 Superdex 200 size exclusion column (GE Healthcare).
For determination of ABL kinase activity, the radiometric filter-binding assay was used. […] 10 μL of enzyme (ranging between 5 nM to 20 nM) was added to initiate the reaction. Pre-incubation of enzyme with compounds (when stated) was performed by exposing the enzyme to compounds prior to addition of the substrate mixture (ATP and/or peptide substrate). […] Filter-plates were washed 3× with 0.5% H3PO4, followed by addition of 30 μL scintillation cocktail (Microscint, Perkin Elmer) per well and then analysed in a TopCount NXT scintillation counter (Perkin Elmer). Results were expressed as IC50 values.

[6] = molecular target: T3, Ba/F3-BCR-ABL1-T315I cells (Homo sapiens, UniProt P00519, T315I, cells depend on it); test: Ba/F3-BCR-ABL1-T315I cell proliferation assay; assay type: cell-based, murine; conditions: 48 hours; read-out: Ba/F3-BCR-ABL1-T315I IC50
T3 construct: A similar approach was used to generate Ba/F3 cells that depend on a BCR-ABL1 variant in which threonine 315 is replaced with isoleucine; fused on or other part: P11274 (Breakpoint cluster region protein)

Row | Structure (SMILES) | GI50 (Ba/F3-BCR-ABL1-WT cells) [nM] | pIC50 (ABL1 (64-515) [4]) | pIC50 (ABL1 (64-515) [5]) | GI50 [6] [nM] | further results
1 | O=C(Nc1ccc(OC(F)(F)Cl)cc1)c1cnc(N2CC[C@@H](O)C2)c(-c2ccn[nH]2)c1 [Example 9, (R)—N-(4-(Chlorodifluoromethoxy)phenyl)-6-(3-hydroxypyrrolidin-1-yl)-5-(1H-pyrazol-5-yl)nicotinamide] | – | – | – | – | predicted human clearance [1]: 3 mL/min/kg; Vd ([1]; human, read-out: volume of distribution (human, estimated)): 1 L/kg; tumor growth inhibition compared to vehicle-treated mice (KCL-22 xenograft [2]; 3 mg/kg twice daily, oral, 7 days): 45%; tumor regression (KCL-22 xenograft [2]; 7.5 mg/kg twice daily, oral, 7 days): 56%; tumor regression (KCL-22 xenograft [2]; 15 mg/kg twice daily, oral, 7 days): 88%; tumor regression (KCL-22 xenograft [2]; 30 mg/kg twice daily, oral, 7 days): 92%; antitumor activity (FIG. 2) (KCL-22 xenograft [2]; daily treatment, subcutaneous KCL-22 xenografts): Dose-dependent antitumor activity; response of nilotinib resistant tumors (FIG. 3) (KCL-22 xenograft [3]; 30 mg/kg BID after resistance to 75 mg/kg Nilotinib BID): regression of the tumors
2 | NC[C@@H]1CCN(c2ncc(C(=O)Nc3ccc(OC(F)(F)Cl)cc3)cc2-c2ccn[nH]2)C1 [Example 21, (S)-6-(3-(Aminomethyl)pyrrolidin-1-yl)-N-(4-(chlorodifluoromethoxy)phenyl)-5-(1H-pyrazol-5-yl)nicotinamide] | 4 | 8.89 | 9.00 | 149 | –
3 | Cc1cc(-c2cc(C(=O)Nc3ccc(OC(F)(F)Cl)cc3)cnc2N2CC[C@@H](O)C2)[nH]n1 [Example 23, (R)—N-(4-(Chlorodifluoromethoxy)phenyl)-6-(3-hydroxypyrrolidin-1-yl)-5-(3-methyl-1H-pyrazol-5-yl)nicotinamide] | 1.7 | 9.30 | 8.15 | 42 | –
4 | O=C(Nc1ccc(OC(F)(F)Cl)cc1)c1ccc(N2CC[C@@H](O)C2)c(-c2[nH]ncc2F)c1 [Example 24, (R)—N-(4-(Chlorodifluoromethoxy)phenyl)-3-(4-fluoro-1H-pyrazol-5-yl)-4-(3-hydroxypyrrolidin-1-yl)benzamide] | 1.1 | 9.40 | 8.30 | 22 | –
5 | O=C(Nc1ccc(OC(F)(F)Cl)cc1)c1cnc(N2CC[C@@H](O)C2)c(-c2cc(C(F)(F)F)n[nH]2)c1 [Example 26, (R)—N-(4-(Chlorodifluoromethoxy)phenyl)-6-(3-hydroxypyrrolidin-1-yl)-5-(3-(trifluoromethyl)-1H-pyrazol-5-yl)nicotinamide] | 9 | 7.98 | 7.92 | 227 | –
6 | Cn1ccc(-c2cc(C(=O)Nc3ccc(OC(F)(F)Cl)cc3)cnc2N2CC[C@@H](O)C2)n1 [Example 28, (R)—N-(4-(Chlorodifluoromethoxy)phenyl)-6-(3-hydroxypyrrolidin-1-yl)-5-(1-methyl-1H-pyrazol-3-yl)nicotinamide] | 7.5 | 8.72 | 8.55 | 150 | –
7 | CC(F)(F)Oc1ccc(NC(=O)c2cnc(N3CC[C@@H](O)C3)c(-c3ccn[nH]3)c2)cc1 [Example 30, (R)—N-(4-(1,1-Difluoroethoxy)phenyl)-6-(3-hydroxypyrrolidin-1-yl)-5-(1H-pyrazol-5-yl)nicotinamide] | 31.8 | 8.37 | 9.40 | 715 | –
8 | O=C(Nc1ccc(C(F)(F)C(F)(F)Cl)cc1)c1cnc(N2CC[C@@H](O)C2)c(-c2ccn[nH]2)c1 [Example 31, (R)—N-(4-(2-Chloro-1,1,2,2-tetrafluoroethyl)phenyl)-6-(3-hydroxypyrrolidin-1-yl)-5-(1H-pyrazol-5-yl)nicotinamide] | 4.1 | 8.60 | 9.00 | 133 | –
9 | Cc1cn[nH]c1-c1cc(C(=O)Nc2ccc(OC(F)(F)Cl)cc2)cnc1N1CC[C@@H](O)C1 [Example 33, (R)—N-(4-(Chlorodifluoromethoxy)phenyl)-6-(3-hydroxypyrrolidin-1-yl)-5-(4-methyl-1H-pyrazol-5-yl)nicotinamide] | 1.5 | 9.22 | 8.22 | 32 | –
10 | Cc1cn(-c2cc(NC(=O)c3ccc(C)c(Nc4nccc(-c5cccnc5)n4)c3)cc(C(F)(F)F)c2)cn1 [nilotinib] | – | – | – | – | tumor regression (KCL-22 xenograft [2]; 75 mg/kg twice daily, positive control): 82%; tumor regression (KCL-22 xenograft [3]; nilotinib alone 75 mg/kg twice daily, after 4 week daily treatment): > 84%; tumor volume on relapse (KCL-22 xenograft [3]; nilotinib alone, after the 4 week response, most tumors): > 500 mm^3
